Test results taken from ChEMBL document CHEMBL2057167, “Rapid identification of ETP-46992, orally bioavailable PI3K inhibitor, selective versus mTOR” (Bioorg Med Chem Lett, 2012).
Active and inactive are the calls of the source. The calls are words filed in the database; no cut-off is given here.

Experiments:
[1] = molecular target: Serine/threonine-protein kinase mTOR (Homo sapiens, UniProt P42345); experiment: Inhibition of mTOR
[2] = molecular target: T1, Phosphatidylinositol 4,5-bisphosphate 3-kinase catalytic subunit alpha isoform (Homo sapiens, UniProt P42336); experiment: Inhibition of PI3Kalpha assessed as accumulation of ADP
[3] = molecular target: T1, Phosphatidylinositol 4,5-bisphosphate 3-kinase catalytic subunit alpha isoform; experiment: Inhibition of PI3Kalpha-mediated AKT phosphorylation at Ser473 in human U2OS cells by Western blot analysis; format: cell-based
[4] = species on record: Homo sapiens; experiment: Selectivity ratio of IC50 for mTOR to IC50 for PI3Kalpha
[5] = Metabolic stability in mouse liver microsomes assessed as compound remaining at 1 uM after 15 mins; format: ADME, Microsome; details: read-out: Stability
[6] = Metabolic stability in human liver microsomes assessed as compound remaining at 1 uM after 15 mins; format: ADME, Microsome; details: read-out: Stability
[7] = test system: MDR1 (P-gp), human; experiment: Efflux ratio of permeability from basolateral to apical side over apical to basolateral side in MDCK cells over expressing human MDR1 at 2 uM after 150 mins; format: ADME, cell-based, Canis lupus familiaris; details: dog
[8] = molecular target: CYP2C19 (Homo sapiens, UniProt P33261); experiment: Inhibition of CYP2C19 at 10 uM; format: ADME
[9] = test system: MDR1 (P-gp), human; experiment: Apparent permeability from apical to basolateral side in MDCK cells over expressing human MDR1 at 2 uM after 150 mins; format: ADME, cell-based, Canis lupus familiaris; details: dog
[10] = molecular target: CYP2D6 (Homo sapiens, UniProt P10635); experiment: Inhibition of CYP2D6 at 10 uM; format: ADME
[11] = molecular target: CYP2C9 (Homo sapiens, UniProt P11712); experiment: Inhibition of CYP2C9 at 10 uM; format: ADME
[12] = molecular target: T2, CYP1A2 (Homo sapiens, UniProt P05177); experiment: Inhibition of CYP1A2 at 10 uM; format: ADME
T2 sequence (P05177 whole entry): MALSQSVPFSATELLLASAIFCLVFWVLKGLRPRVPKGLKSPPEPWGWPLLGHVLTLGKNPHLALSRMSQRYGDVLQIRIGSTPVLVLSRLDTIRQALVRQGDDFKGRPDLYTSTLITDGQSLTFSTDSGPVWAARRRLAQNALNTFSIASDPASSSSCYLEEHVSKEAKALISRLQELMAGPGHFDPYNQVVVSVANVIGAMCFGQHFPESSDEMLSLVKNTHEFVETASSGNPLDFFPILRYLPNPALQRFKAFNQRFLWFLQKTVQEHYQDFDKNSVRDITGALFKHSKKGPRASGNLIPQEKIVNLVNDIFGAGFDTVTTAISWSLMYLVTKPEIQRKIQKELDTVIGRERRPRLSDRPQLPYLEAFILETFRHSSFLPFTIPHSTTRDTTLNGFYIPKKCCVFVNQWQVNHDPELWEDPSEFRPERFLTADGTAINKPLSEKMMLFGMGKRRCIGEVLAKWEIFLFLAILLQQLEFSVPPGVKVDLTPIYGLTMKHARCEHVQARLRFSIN

[13] = molecular target: CYP3A4 (Homo sapiens, UniProt P08684); experiment: Inhibition of CYP3A4 at 10 uM; format: ADME
[14] = molecular target: T3, Phosphatidylinositol 4,5-bisphosphate 3-kinase catalytic subunit delta isoform (Homo sapiens, UniProt O00329); experiment: Inhibition of human PI3Kdelta by HTRF assay; details: read-out: Ki(app)
T3 sequence (O00329 whole entry): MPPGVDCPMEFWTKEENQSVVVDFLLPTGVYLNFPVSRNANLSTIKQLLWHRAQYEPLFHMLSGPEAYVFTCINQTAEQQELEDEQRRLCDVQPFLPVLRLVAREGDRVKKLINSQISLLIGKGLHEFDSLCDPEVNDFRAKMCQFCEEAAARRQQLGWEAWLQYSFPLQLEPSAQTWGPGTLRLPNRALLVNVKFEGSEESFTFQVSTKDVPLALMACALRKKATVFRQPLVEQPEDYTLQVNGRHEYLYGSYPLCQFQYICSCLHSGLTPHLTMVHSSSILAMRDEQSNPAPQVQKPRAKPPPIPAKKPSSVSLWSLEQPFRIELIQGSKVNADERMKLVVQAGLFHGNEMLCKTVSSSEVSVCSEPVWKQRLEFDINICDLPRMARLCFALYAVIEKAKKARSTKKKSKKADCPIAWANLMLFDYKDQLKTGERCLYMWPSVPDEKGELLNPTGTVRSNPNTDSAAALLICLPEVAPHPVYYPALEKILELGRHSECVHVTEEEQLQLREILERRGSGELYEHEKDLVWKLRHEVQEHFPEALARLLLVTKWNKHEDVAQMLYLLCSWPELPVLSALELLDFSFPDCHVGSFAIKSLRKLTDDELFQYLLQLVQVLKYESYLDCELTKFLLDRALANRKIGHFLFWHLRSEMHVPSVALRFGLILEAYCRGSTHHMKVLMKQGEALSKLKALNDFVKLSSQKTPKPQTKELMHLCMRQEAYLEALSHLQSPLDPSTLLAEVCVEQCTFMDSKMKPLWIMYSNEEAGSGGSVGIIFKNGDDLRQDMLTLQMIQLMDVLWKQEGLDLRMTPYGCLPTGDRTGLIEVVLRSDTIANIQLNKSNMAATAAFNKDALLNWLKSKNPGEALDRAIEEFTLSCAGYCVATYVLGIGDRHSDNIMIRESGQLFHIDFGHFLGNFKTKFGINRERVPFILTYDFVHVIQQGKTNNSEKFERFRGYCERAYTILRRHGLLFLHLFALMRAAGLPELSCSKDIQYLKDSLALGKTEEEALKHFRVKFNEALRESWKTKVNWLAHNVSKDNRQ

[15] = molecular target: Phosphatidylinositol 4,5-bisphosphate 3-kinase catalytic subunit gamma isoform (Homo sapiens, UniProt P48736); experiment: Inhibition of PI3Kgamma assessed as accumulation of ADP; details: read-out: Ki(app)
[16] = molecular target: Phosphatidylinositol 4,5-bisphosphate 3-kinase catalytic subunit beta isoform (Homo sapiens, UniProt P42338); experiment: Inhibition of human PI3Kbeta by HTRF assay; details: read-out: Ki(app)
[17] = test system: BT-474; experiment: Antitumor activity against human BT474 cells with PI3Kalpha […] mutated xenografted in MF-1 nude mouse assessed as tumor growth inhibition at 10 mg/kg, po qd for weekly 5 days for 2 weeks; format: functional; details: read-out: GI
[18] = species on record: Mus musculus; experiment: Reduction of [18F]-FDG uptake in GEMM mouse lung tumor model driven by KRasG12V oncogenic mutation tumor after 45 mins by PET-CT analysis; format: functional; details: Neoplasm
[19] = test system: Mus musculus; experiment: Antitumor activity in GEMM mouse lung tumor model driven by KRasG12V oncogenic mutation assessed as tumor growth inhibition at 25 mg/kg, po qd for weekly 5 days for 3 weeks; format: functional; details: read-out: GI
[20] = test system: Mus musculus; experiment: Down regulation of phosphorylated AKT at S473 level in GEMM mouse lung tumor model driven by KRasG12V oncogenic mutation tumor at 10 mg/kg, po after 1 hr by Western blot analysis; format: functional
[21] = test system: Lung; experiment: Reduction of [18F]-FDG uptake in GEMM mouse lung tumor model driven by KRasG12V oncogenic mutation lung after 45 mins by PET-CT analysis; format: functional, tissue-based

T1 sequence (P42336 whole entry, canonical isoform): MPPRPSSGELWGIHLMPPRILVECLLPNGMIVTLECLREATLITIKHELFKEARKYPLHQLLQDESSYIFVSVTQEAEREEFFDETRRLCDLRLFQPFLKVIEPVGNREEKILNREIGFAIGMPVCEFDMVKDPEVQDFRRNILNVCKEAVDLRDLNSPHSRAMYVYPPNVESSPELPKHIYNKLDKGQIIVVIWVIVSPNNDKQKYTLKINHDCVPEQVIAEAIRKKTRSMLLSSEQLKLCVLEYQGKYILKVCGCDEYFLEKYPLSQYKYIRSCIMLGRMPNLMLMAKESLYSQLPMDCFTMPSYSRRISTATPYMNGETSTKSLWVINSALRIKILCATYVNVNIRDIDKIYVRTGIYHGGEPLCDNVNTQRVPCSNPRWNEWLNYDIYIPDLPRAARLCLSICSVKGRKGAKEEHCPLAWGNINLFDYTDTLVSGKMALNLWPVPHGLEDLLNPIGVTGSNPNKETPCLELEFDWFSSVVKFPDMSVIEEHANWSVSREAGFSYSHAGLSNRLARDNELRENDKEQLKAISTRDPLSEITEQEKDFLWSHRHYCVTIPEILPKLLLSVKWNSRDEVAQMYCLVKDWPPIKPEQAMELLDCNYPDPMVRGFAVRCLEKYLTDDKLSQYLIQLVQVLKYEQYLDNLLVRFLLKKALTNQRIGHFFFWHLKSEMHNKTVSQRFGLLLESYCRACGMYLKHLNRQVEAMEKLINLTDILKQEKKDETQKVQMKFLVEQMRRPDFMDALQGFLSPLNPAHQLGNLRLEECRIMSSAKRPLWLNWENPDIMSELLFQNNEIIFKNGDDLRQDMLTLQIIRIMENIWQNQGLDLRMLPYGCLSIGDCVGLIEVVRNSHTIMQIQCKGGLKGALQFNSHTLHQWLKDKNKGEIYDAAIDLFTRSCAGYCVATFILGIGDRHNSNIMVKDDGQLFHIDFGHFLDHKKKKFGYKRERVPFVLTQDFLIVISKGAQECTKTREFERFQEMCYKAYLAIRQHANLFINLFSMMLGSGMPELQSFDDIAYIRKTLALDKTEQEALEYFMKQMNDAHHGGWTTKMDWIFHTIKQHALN
CYP3A4, sequence (P08684 whole entry, canonical isoform): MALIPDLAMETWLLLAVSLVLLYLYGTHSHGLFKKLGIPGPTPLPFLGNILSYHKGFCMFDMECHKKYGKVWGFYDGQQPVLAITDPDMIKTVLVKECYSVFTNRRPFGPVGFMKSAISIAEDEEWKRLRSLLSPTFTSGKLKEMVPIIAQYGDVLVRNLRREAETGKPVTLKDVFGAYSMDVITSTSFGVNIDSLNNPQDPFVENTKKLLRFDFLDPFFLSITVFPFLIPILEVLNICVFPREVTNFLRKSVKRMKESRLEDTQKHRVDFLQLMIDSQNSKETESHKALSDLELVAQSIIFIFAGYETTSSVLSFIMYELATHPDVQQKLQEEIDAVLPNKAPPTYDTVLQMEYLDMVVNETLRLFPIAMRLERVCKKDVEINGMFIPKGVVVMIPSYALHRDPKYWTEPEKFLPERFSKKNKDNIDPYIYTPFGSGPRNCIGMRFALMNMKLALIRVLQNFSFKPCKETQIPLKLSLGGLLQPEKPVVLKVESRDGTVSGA
CYP2D6, sequence (P10635 whole entry): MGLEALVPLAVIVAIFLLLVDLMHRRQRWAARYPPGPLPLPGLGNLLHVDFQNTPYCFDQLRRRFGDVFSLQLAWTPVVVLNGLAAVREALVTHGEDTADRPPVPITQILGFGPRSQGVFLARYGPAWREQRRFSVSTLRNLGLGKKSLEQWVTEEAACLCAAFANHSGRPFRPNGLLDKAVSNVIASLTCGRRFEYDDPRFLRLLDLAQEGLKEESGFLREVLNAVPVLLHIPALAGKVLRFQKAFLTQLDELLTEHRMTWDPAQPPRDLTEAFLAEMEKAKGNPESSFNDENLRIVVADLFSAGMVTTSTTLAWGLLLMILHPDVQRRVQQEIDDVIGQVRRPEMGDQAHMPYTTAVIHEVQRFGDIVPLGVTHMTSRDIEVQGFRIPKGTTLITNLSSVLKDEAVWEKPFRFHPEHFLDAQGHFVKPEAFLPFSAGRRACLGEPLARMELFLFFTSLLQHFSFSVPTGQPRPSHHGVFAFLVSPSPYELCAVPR
Phosphatidylinositol 4,5-bisphosphate 3-kinase catalytic subunit beta isoform, sequence (P42338 whole entry, canonical isoform): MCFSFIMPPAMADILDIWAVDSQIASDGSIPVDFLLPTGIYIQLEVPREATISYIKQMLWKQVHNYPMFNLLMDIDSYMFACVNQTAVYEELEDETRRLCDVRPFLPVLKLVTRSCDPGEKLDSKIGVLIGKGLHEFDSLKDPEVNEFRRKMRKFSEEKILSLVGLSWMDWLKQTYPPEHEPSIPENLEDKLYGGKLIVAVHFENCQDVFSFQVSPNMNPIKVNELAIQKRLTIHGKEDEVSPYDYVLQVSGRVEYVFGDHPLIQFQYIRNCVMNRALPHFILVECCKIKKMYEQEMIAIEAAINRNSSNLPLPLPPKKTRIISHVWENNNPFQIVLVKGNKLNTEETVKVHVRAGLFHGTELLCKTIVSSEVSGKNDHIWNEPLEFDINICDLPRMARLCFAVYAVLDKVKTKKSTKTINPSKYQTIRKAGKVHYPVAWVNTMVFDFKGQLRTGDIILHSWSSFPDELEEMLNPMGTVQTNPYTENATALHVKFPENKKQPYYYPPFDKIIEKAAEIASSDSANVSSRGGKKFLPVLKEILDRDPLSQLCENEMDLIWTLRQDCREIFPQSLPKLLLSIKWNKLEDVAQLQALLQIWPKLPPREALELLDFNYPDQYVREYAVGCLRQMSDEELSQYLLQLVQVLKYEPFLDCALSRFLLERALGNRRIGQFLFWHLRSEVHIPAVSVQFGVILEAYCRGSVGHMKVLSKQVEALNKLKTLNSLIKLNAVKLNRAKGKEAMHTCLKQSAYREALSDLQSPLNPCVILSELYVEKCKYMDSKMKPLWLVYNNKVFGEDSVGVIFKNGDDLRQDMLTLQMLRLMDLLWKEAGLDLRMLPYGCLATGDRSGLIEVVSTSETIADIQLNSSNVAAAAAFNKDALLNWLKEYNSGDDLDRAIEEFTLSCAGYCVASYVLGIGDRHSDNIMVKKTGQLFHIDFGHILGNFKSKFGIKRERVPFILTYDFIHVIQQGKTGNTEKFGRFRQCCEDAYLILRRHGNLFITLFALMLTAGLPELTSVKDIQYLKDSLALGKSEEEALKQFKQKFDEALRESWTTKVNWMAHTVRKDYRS
CYP2C9, sequence (P11712 whole entry): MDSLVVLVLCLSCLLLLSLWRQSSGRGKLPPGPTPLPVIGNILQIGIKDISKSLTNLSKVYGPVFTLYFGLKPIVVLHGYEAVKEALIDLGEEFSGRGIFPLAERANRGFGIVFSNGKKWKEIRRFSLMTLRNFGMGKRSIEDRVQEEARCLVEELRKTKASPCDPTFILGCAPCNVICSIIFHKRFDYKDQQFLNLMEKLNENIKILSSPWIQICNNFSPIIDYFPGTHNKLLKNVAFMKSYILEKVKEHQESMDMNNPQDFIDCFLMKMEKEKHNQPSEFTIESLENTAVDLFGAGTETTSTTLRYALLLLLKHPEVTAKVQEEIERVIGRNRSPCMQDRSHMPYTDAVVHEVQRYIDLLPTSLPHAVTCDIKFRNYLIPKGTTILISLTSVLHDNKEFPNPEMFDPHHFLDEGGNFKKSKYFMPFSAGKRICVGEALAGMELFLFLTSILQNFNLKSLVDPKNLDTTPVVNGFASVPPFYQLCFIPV
Phosphatidylinositol 4,5-bisphosphate 3-kinase catalytic subunit gamma isoform, sequence (P48736 whole entry, canonical isoform): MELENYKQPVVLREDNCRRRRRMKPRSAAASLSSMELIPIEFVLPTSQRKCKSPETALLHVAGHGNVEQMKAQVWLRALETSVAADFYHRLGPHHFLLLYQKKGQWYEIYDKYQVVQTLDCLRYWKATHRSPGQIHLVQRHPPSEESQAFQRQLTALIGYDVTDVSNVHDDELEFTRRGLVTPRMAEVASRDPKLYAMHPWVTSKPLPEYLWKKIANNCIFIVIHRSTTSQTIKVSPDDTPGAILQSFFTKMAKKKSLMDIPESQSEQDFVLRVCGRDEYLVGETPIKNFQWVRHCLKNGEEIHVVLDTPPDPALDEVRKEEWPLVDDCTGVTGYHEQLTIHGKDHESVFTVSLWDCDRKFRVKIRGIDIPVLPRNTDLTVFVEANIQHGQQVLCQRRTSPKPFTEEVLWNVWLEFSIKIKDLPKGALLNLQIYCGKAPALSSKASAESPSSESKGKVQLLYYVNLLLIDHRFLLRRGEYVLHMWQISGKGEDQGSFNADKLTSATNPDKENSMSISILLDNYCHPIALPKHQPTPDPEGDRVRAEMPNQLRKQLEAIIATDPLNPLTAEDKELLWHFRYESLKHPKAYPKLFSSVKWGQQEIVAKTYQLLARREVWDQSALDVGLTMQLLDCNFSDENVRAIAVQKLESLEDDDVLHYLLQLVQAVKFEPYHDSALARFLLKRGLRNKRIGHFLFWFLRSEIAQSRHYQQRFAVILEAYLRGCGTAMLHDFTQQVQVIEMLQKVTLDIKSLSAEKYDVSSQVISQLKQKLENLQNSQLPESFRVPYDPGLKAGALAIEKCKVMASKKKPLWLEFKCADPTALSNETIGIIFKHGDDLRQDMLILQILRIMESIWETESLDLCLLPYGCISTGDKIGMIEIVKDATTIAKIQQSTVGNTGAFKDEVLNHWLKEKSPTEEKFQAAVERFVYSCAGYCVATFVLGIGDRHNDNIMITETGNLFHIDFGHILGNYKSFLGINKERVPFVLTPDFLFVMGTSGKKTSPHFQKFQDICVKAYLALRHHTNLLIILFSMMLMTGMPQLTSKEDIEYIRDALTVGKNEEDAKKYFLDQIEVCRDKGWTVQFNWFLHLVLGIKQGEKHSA

Row | IC50 [1] [µM] | IC50 [2] [µM] | IC50 [3] [µM] | SMILES | also measured
1 | 0.751 |  |  | Nc1ncc(-c2cn3cc(C(=O)NC4CCOCC4)nc3c(N3CCOCC3)n2)cn1 | 
2 | > 5 | 0.0046 | 0.0303 | CN(C)CCNC(=O)c1cn2cc(-c3cnc(N)nc3)nc(N3CCOCC3)c2n1 | 
3 | 0.989 |  | 0.07 | Nc1ncc(-c2cn3cc(C(=O)N[C@H]4CC[C@H](O)CC4)nc3c(N3CCOCC3)n2)cn1 | Ratio IC50 [4]: > 50
4 | > 5 | 0.0006 | 0.0087 | CN(C)CCCNC(=O)c1cn2cc(-c3cnc(N)nc3)nc(N3CCOCC3)c2n1 | 
5 |  |  | 0.429 | CN(C)CCCNC(=O)c1cn2cc(-c3cccc4[nH]ncc34)nc(N3CCOCC3)c2n1 | 
6 | 0.237 | 0.0004 | 0.0018 | NC(=O)c1cn2cc(-c3cnc(N)nc3)nc(N3CCOCC3)c2n1 | remaining at 0.25 h, 1 µM [5]: 92%; remaining at 0.25 h, 1 µM [6]: 90%; Ratio IC50 [4]: > 50; efflux ratio at 2.5 h, 2 µM [7]: 0.9; inhibition at 10 µM [8]: 13%; Papp A→B at 2.5 h, 2 µM [9]: 15.4 ×10⁻⁶ cm/s; inhibition at 10 µM [10]: 8%; inhibition at 10 µM [11]: 5%; inhibition at 10 µM [12]: 24%; inhibition at 10 µM [13]: 17%
7 | 2.29 | 0.0027 | 0.014 | COCCNC(=O)c1cn2cc(-c3cnc(N)nc3)nc(N3CCOCC3)c2n1 | 
8 | > 5 | 0.0104 | 0.0343 | Nc1ncc(-c2cn3cc(C(=O)NCCN4CCOCC4)nc3c(N3CCOCC3)n2)cn1 | 
9 |  |  |  | COCCNC(=O)c1nc2c(N3CCOCC3)nc(-c3cnc(N)nc3)cn2c1C | Ki [14]: 0.008 µM; Ki [15]: 0.0629 µM; Ki [16]: 0.0941 µM; inhibition in vivo at 10 mg/kg [17]: 58%; Activity [18]: Active; inhibition in vivo at 25 mg/kg [19]: 61%; Activity [20]: >70%; Activity [21]: Active
10 |  | 0.0112 | 0.0351 | COCCNC(=O)c1cn2c(Cl)c(-c3cnc(N)nc3)nc(N3CCOCC3)c2n1 | 
11 | > 5 | 0.0032 | 0.026 | COCCCNC(=O)c1cn2cc(-c3cnc(N)nc3)nc(N3CCOCC3)c2n1 | 
